Results taken from ChEMBL document CHEMBL3137667, “[Drug-induced liver injury; fourteenth updated edition of the bibliographic database of liver injuries and related drugs]” (Gastroenterol Clin Biol, 2004).

Experiments:
[1] = human
[2] = human; remark: listed apart in the source
[3] = human, serum, 4383 h
[4] = human; remark: listed apart in the source
[5] = human; remark: listed apart in the source
[6] = human; remark: listed apart in the source
[7] = human; remark: listed apart in the source
[8] = Times to onset, minimal and maximal, observed in the indexed observations. [column 'DELAI' in source]; conditions: human
[9] = human; remark: listed apart in the source
[10] = human; remark: listed apart in the source
[11] = Highest frequency of moderate liver toxicity observed during clinical trials, expressed as a percentage. [column '% BIOL' in source]; conditions: human
[12] = Highest frequency of acute liver toxicity observed during clinical trials, expressed as a percentage. [column '% AIGUE' in source]; conditions: human
[13] = human; remark: listed apart in the source
[14] = human, serum
[15] = human, serum; remark: listed apart in the source
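Wherever Hepatotoxicity (association with vascular disease) is given: count of indexed literature references reporting vascular liver injury in humans, e.g. peliosis hepatitis, hepatic veno-occlusive disease or Budd-Chiari syndrome.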
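Wherever Hepatotoxicity (benign tumour) is given: value is a count of indexed literature references citing a benign tumour confirmed by histopathology.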
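Wherever Hepatotoxicity (choleostasis) is given: human cholestatic liver injury, shown by histopathology or by peak ALT or AST elevation over alkaline phosphatase ratio below 2, value counts indexed literature reports.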
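Wherever Hepatotoxicity (chronic liver disease) is given: chronic liver injury confirmed by histopathology or persistently raised serum aminotransferase activity beyond 6 months, value given as the count of indexed literature references.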
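Wherever Hepatotoxicity (cirrhosis) is given: value is a count of indexed literature references reporting cirrhosis confirmed by histopathology.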
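Wherever Hepatotoxicity (cytolytic) is given: human cytolytic liver injury, shown by histopathology or by a ratio above 5 of peak ALT or AST elevation to alkaline phosphatase elevation, value counts indexed references.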
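Wherever Hepatotoxicity (granulomatous hepatitis) is given: value is a count of indexed literature references reporting granulomatous liver disease confirmed by histopathology.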
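Wherever Hepatotoxicity (malignant tumour) is given: malignant tumour confirmed by histopathology, value gives the count of indexed literature references reporting it.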
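Wherever Hepatotoxicity (severe hepatitis) is given: human clinical data: severe hepatitis, meaning potentially life-threatening liver failure or clinically observed cases, the value counts how many indexed literature references report it.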
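Wherever Hepatotoxicity (steatosis) is given: steatosis confirmed by histopathology, value is the count of indexed references.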

COCc1c(C(C)C)nc(C(C)C)c(/C=C/[C@@H](O)C[C@@H](O)CC(=O)O)c1-c1ccc(F)cc1 [CERIVASTATIN]
Hepatotoxicity (granulomatous hepatitis) [1]: 0 | Hepatotoxicity (malignant tumour) [2]: 0 | Hepatotoxicity (chronic liver disease) [3]: 0 | Hepatotoxicity (cirrhosis) [4]: 0 | Hepatotoxicity (steatosis) [5]: 0 | Hepatotoxicity (benign tumour) [6]: 0 | Hepatotoxicity (choleostasis) [7]: 1 | Hepatotoxicity (time to onset) [8]: 3 weeks | Hepatotoxicity (association with vascular disease) [9]: 0 | Hepatotoxicity (cytolytic) [10]: 1

CN(C)CCCC1(c2ccc(F)cc2)OCc2cc(C#N)ccc21 (configuration not stated) [CITALOPRAM]
Hepatotoxicity (moderate) [11]: 5.3% | Hepatotoxicity (granulomatous hepatitis) [1]: 0 | Hepatotoxicity (malignant tumour) [2]: 0 | Hepatotoxicity (chronic liver disease) [3]: 0 | Hepatotoxicity (cirrhosis) [4]: 0 | Hepatotoxicity (steatosis) [5]: 0 | Hepatotoxicity (acute) [12]: 0% | Hepatotoxicity (benign tumour) [6]: 0 | Hepatotoxicity (choleostasis) [7]: 1 | Hepatotoxicity (severe hepatitis) [13]: 1 | Hepatotoxicity (time to onset) [8]: 4 weeks - 2 months | Hepatotoxicity (association with vascular disease) [9]: 0 | Hepatotoxicity (cytolytic) [10]: 1 | Hepatotoxicity (moderate) [14]: 2

O=C(NCC1CCCCN1)c1cc(OCC(F)(F)F)ccc1OCC(F)(F)F (configuration not stated) [FLECAINIDE]
Hepatotoxicity (moderate) [11]: 36.7% | Hepatotoxicity (granulomatous hepatitis) [1]: 0 | Hepatotoxicity (malignant tumour) [2]: 0 | Hepatotoxicity (chronic liver disease) [3]: 0 | Hepatotoxicity (cirrhosis) [4]: 0 | Hepatotoxicity (steatosis) [5]: 0 | Hepatotoxicity (acute) [12]: 0% | Hepatotoxicity (benign tumour) [6]: 0 | Hepatotoxicity (choleostasis) [7]: 2 | Hepatotoxicity (severe hepatitis) [13]: 0 | Hepatotoxicity (time to onset) [8]: 2 days - 1 month | Hepatotoxicity (association with vascular disease) [9]: 0 | Hepatotoxicity (cytolytic) [10]: 1 | Hepatotoxicity (moderate) [14]: 3

CC(C)n1c(/C=C/C(O)CC(O)CC(=O)O)c(-c2ccc(F)cc2)c2ccccc21 (configuration not stated) [FLUVASTATIN]
Hepatotoxicity (moderate) ([11]; Liver): 55% | Hepatotoxicity (granulomatous hepatitis) ([1]; Liver): 0 | Hepatotoxicity (malignant tumour) [2]: 0 | Hepatotoxicity (chronic liver disease) [3]: 0 | Hepatotoxicity (cirrhosis) [4]: 0 | Hepatotoxicity (steatosis) [5]: 0 | Hepatotoxicity (acute) ([12]; Liver): 1.2% | Hepatotoxicity (benign tumour) [6]: 0 | Hepatotoxicity (choleostasis) ([7]; Liver): 2 | Hepatotoxicity (severe hepatitis) ([13]; Liver): 0 | Hepatotoxicity (time to onset) [8]: 8 months | Hepatotoxicity (association with vascular disease) [9]: 0 | Hepatotoxicity (cytolytic) ([10]; Liver): 3 | Hepatotoxicity (moderate) [14]: 36

Cc1ccc(NC(=O)c2ccc(CN3CCN(C)CC3)cc2)cc1Nc1nccc(-c2cccnc2)n1 [IMATINIB]
Hepatotoxicity (moderate) ([11]; Liver): 100% | Hepatotoxicity (granulomatous hepatitis) [1]: 0 | Hepatotoxicity (malignant tumour) [2]: 0 | Hepatotoxicity (chronic liver disease) [3]: 0 | Hepatotoxicity (cirrhosis) [4]: 0 | Hepatotoxicity (steatosis) [5]: 0 | Hepatotoxicity (benign tumour) [6]: 0 | Hepatotoxicity (choleostasis) [7]: 0 | Hepatotoxicity (severe hepatitis) ([13]; Liver): 1 | Hepatotoxicity (time to onset) [8]: 11 days - 12 days | Hepatotoxicity (association with vascular disease) [9]: 0 | Hepatotoxicity (cytolytic) [10]: 1 | Hepatotoxicity (moderate) [14]: 5

CC(C(=O)O)c1cccc(C(=O)c2ccccc2)c1 (configuration not stated) [KETOPROFEN]
Hepatotoxicity (moderate) [11]: 2.5% | Hepatotoxicity (granulomatous hepatitis) [1]: 0 | Hepatotoxicity (malignant tumour) [2]: 0 | Hepatotoxicity (chronic liver disease) [3]: 0 | Hepatotoxicity (cirrhosis) [4]: 0 | Hepatotoxicity (steatosis) [5]: 3 | Hepatotoxicity (acute) [12]: 0% | Hepatotoxicity (benign tumour) [6]: 0 | Hepatotoxicity (choleostasis) [7]: 5 | Hepatotoxicity (severe hepatitis) [13]: 2 | Hepatotoxicity (time to onset) [8]: 2 days - 2 weeks | Hepatotoxicity (association with vascular disease) [9]: 0 | Hepatotoxicity (cytolytic) [10]: 3 | Hepatotoxicity (moderate) [14]: 3

COC(=O)C1=C(C)NC(C)=C(C(=O)OCCN(C)Cc2ccccc2)C1c1cccc([N+](=O)[O-])c1 (configuration not stated) [NICARDIPINE]
Hepatotoxicity (moderate) [11]: 6.7% | Hepatotoxicity (granulomatous hepatitis) [1]: 0 | Hepatotoxicity (malignant tumour) [2]: 0 | Hepatotoxicity (chronic liver disease) [3]: 0 | Hepatotoxicity (cirrhosis) [4]: 0 | Hepatotoxicity (steatosis) [5]: 1 | Hepatotoxicity (acute) [12]: 0% | Hepatotoxicity (benign tumour) [6]: 0 | Hepatotoxicity (choleostasis) [7]: 0 | Hepatotoxicity (severe hepatitis) [13]: 0 | Hepatotoxicity (time to onset) [8]: 2 months | Hepatotoxicity (association with vascular disease) [9]: 0 | Hepatotoxicity (cytolytic) [10]: 0 | Hepatotoxicity (moderate) [14]: 6

Cc1nnc2n1-c1ccc(Cl)cc1C(c1ccccc1Cl)=NC2 [TRIAZOLAM]
Hepatotoxicity (moderate) ([11]; Liver): 0% | Hepatotoxicity (granulomatous hepatitis) [1]: 0 | Hepatotoxicity (malignant tumour) [2]: 0 | Hepatotoxicity (chronic liver disease) [3]: 0 | Hepatotoxicity (cirrhosis) [4]: 0 | Hepatotoxicity (steatosis) [5]: 0 | Hepatotoxicity (benign tumour) [6]: 0 | Hepatotoxicity (choleostasis) [7]: 2 | Hepatotoxicity (severe hepatitis) ([13]; Liver): 2 | Hepatotoxicity (time to onset) [8]: 4 months | Hepatotoxicity (association with vascular disease) [9]: 0 | Hepatotoxicity (cytolytic) [10]: 1 | Hepatotoxicity (moderate) [14]: 1

NARTOGRASTIM
Hepatotoxicity (moderate) [11]: 0% | Hepatotoxicity (granulomatous hepatitis) [1]: 0 | Hepatotoxicity (malignant tumour) [2]: 0 | Hepatotoxicity (chronic liver disease) [3]: 0 | Hepatotoxicity (cirrhosis) [4]: 0 | Hepatotoxicity (steatosis) [5]: 0 | Hepatotoxicity (acute) [12]: 0% | Hepatotoxicity (benign tumour) [6]: 0 | Hepatotoxicity (choleostasis) [7]: 0 | Hepatotoxicity (severe hepatitis) [13]: 0 | Hepatotoxicity (association with vascular disease) [9]: 0 | Hepatotoxicity (cytolytic) [10]: 0 | Hepatotoxicity (acute) [15]: 0 | Hepatotoxicity (moderate) [14]: 1

NEDAPLATIN
Hepatotoxicity (moderate) [11]: 19.2% | Hepatotoxicity (granulomatous hepatitis) [1]: 0 | Hepatotoxicity (malignant tumour) [2]: 0 | Hepatotoxicity (chronic liver disease) [3]: 0 | Hepatotoxicity (cirrhosis) [4]: 0 | Hepatotoxicity (steatosis) [5]: 0 | Hepatotoxicity (acute) [12]: 0% | Hepatotoxicity (benign tumour) [6]: 0 | Hepatotoxicity (choleostasis) [7]: 0 | Hepatotoxicity (severe hepatitis) [13]: 0 | Hepatotoxicity (association with vascular disease) [9]: 0 | Hepatotoxicity (cytolytic) [10]: 0 | Hepatotoxicity (acute) [15]: 0 | Hepatotoxicity (moderate) [14]: 1

NYSTATIN
Hepatotoxicity (moderate) [11]: 33.3% | Hepatotoxicity (granulomatous hepatitis) [1]: 0 | Hepatotoxicity (malignant tumour) [2]: 0 | Hepatotoxicity (chronic liver disease) [3]: 0 | Hepatotoxicity (cirrhosis) [4]: 0 | Hepatotoxicity (steatosis) [5]: 0 | Hepatotoxicity (acute) [12]: 0% | Hepatotoxicity (benign tumour) [6]: 0 | Hepatotoxicity (choleostasis) [7]: 0 | Hepatotoxicity (severe hepatitis) [13]: 0 | Hepatotoxicity (association with vascular disease) [9]: 0 | Hepatotoxicity (cytolytic) [10]: 1 | Hepatotoxicity (acute) [15]: 1 | Hepatotoxicity (moderate) [14]: 3

PALIVIZUMAB
Hepatotoxicity (moderate) [11]: 3.6% | Hepatotoxicity (granulomatous hepatitis) [1]: 0 | Hepatotoxicity (malignant tumour) [2]: 0 | Hepatotoxicity (chronic liver disease) [3]: 0 | Hepatotoxicity (cirrhosis) [4]: 0 | Hepatotoxicity (steatosis) [5]: 0 | Hepatotoxicity (acute) [12]: 0% | Hepatotoxicity (benign tumour) [6]: 0 | Hepatotoxicity (choleostasis) [7]: 0 | Hepatotoxicity (severe hepatitis) [13]: 0 | Hepatotoxicity (association with vascular disease) [9]: 0 | Hepatotoxicity (cytolytic) [10]: 0 | Hepatotoxicity (acute) [15]: 0 | Hepatotoxicity (moderate) [14]: 1

POLOXAMER
Hepatotoxicity (moderate) [11]: 7.7% | Hepatotoxicity (granulomatous hepatitis) [1]: 0 | Hepatotoxicity (malignant tumour) [2]: 0 | Hepatotoxicity (chronic liver disease) [3]: 0 | Hepatotoxicity (cirrhosis) [4]: 0 | Hepatotoxicity (steatosis) [5]: 0 | Hepatotoxicity (acute) [12]: 0% | Hepatotoxicity (benign tumour) [6]: 0 | Hepatotoxicity (choleostasis) [7]: 0 | Hepatotoxicity (severe hepatitis) [13]: 0 | Hepatotoxicity (association with vascular disease) [9]: 0 | Hepatotoxicity (cytolytic) [10]: 0 | Hepatotoxicity (acute) [15]: 0 | Hepatotoxicity (moderate) [14]: 1

POVIDONE
Hepatotoxicity (moderate) [11]: 0% | Hepatotoxicity (granulomatous hepatitis) [1]: 0 | Hepatotoxicity (malignant tumour) [2]: 0 | Hepatotoxicity (chronic liver disease) [3]: 0 | Hepatotoxicity (cirrhosis) [4]: 1 | Hepatotoxicity (steatosis) [5]: 0 | Hepatotoxicity (acute) [12]: 0% | Hepatotoxicity (benign tumour) [6]: 0 | Hepatotoxicity (choleostasis) [7]: 0 | Hepatotoxicity (severe hepatitis) [13]: 0 | Hepatotoxicity (association with vascular disease) [9]: 0 | Hepatotoxicity (cytolytic) [10]: 0 | Hepatotoxicity (acute) [15]: 0 | Hepatotoxicity (moderate) [14]: 0

REVIPARIN SODIUM
Hepatotoxicity (moderate) [11]: 10.3% | Hepatotoxicity (granulomatous hepatitis) [1]: 0 | Hepatotoxicity (malignant tumour) [2]: 0 | Hepatotoxicity (chronic liver disease) [3]: 0 | Hepatotoxicity (cirrhosis) [4]: 0 | Hepatotoxicity (steatosis) [5]: 0 | Hepatotoxicity (acute) [12]: 0% | Hepatotoxicity (benign tumour) [6]: 0 | Hepatotoxicity (choleostasis) [7]: 0 | Hepatotoxicity (severe hepatitis) [13]: 0 | Hepatotoxicity (association with vascular disease) [9]: 0 | Hepatotoxicity (cytolytic) [10]: 0 | Hepatotoxicity (acute) [15]: 0 | Hepatotoxicity (moderate) [14]: 1

SODIUM NITROPRUSSIDE
Hepatotoxicity (moderate) [11]: 41% | Hepatotoxicity (granulomatous hepatitis) [1]: 0 | Hepatotoxicity (malignant tumour) [2]: 0 | Hepatotoxicity (chronic liver disease) [3]: 0 | Hepatotoxicity (cirrhosis) [4]: 0 | Hepatotoxicity (steatosis) [5]: 0 | Hepatotoxicity (acute) [12]: 0% | Hepatotoxicity (benign tumour) [6]: 0 | Hepatotoxicity (choleostasis) [7]: 0 | Hepatotoxicity (severe hepatitis) [13]: 0 | Hepatotoxicity (association with vascular disease) [9]: 0 | Hepatotoxicity (cytolytic) [10]: 0 | Hepatotoxicity (acute) [15]: 0 | Hepatotoxicity (moderate) [14]: 1

TINZAPARIN SODIUM
Hepatotoxicity (moderate) [11]: 35% | Hepatotoxicity (granulomatous hepatitis) [1]: 0 | Hepatotoxicity (malignant tumour) [2]: 0 | Hepatotoxicity (chronic liver disease) [3]: 0 | Hepatotoxicity (cirrhosis) [4]: 0 | Hepatotoxicity (steatosis) [5]: 0 | Hepatotoxicity (acute) [12]: 0% | Hepatotoxicity (benign tumour) [6]: 0 | Hepatotoxicity (choleostasis) [7]: 0 | Hepatotoxicity (severe hepatitis) [13]: 0 | Hepatotoxicity (association with vascular disease) [9]: 0 | Hepatotoxicity (cytolytic) [10]: 0 | Hepatotoxicity (acute) [15]: 0 | Hepatotoxicity (moderate) [14]: 3
